The NIST ThermoML archive (doi:10.1016/j.fluid.2005.05.023)
Numbers after ± are expanded uncertainties.

Assay: xn = mol fraction of the nth substance listed
Conditions: Liquid, Vibrating tube method

Cc1ccccc1 [toluene] + CCO
mass density [kg/m3]
Conditions	100 kPa	5000 kPa	10000 kPa	15000 kPa	20000 kPa	25000 kPa	30000 kPa	35000 kPa	40000 kPa	45000 kPa
283.15 K, x2 = 0	876.1 ± 0.2	879.5 ± 0.2	882.9 ± 0.3	886.1 ± 0.3	889.3 ± 0.3	892.4 ± 0.3	895.3 ± 0.3	898.2 ± 0.3	901 ± 0.3	903.7 ± 0.3
283.15 K, x2 = 0.125	870.4 ± 0.3	873.9 ± 0.3	877.4 ± 0.3	880.7 ± 0.3	883.8 ± 0.3	886.9 ± 0.3	889.9 ± 0.3	892.8 ± 0.3	895.6 ± 0.3	898.4 ± 0.3
283.15 K, x2 = 0.25	864.3 ± 0.3	867.9 ± 0.3	871.3 ± 0.3	874.6 ± 0.3	877.9 ± 0.3	881 ± 0.3	884 ± 0.3	886.9 ± 0.3	889.7 ± 0.3	892.5 ± 0.3
283.15 K, x2 = 0.375	857.5 ± 0.3	861.1 ± 0.3	864.6 ± 0.3	867.9 ± 0.3	871.2 ± 0.3	874.3 ± 0.3	877.3 ± 0.3	880.3 ± 0.3	883.1 ± 0.3	885.9 ± 0.4
283.15 K, x2 = 0.5	849.5 ± 0.3	853.2 ± 0.3	856.7 ± 0.3	860.1 ± 0.3	863.4 ± 0.3	866.5 ± 0.3	869.6 ± 0.3	872.5 ± 0.3	875.4 ± 0.4	878.2 ± 0.4
283.15 K, x2 = 0.625	840.2 ± 0.3	843.9 ± 0.3	847.5 ± 0.3	850.9 ± 0.3	854.2 ± 0.3	857.4 ± 0.3	860.5 ± 0.4	863.5 ± 0.4	866.4 ± 0.4	869.2 ± 0.4
283.15 K, x2 = 0.75	829.2 ± 0.3	832.9 ± 0.3	836.5 ± 0.3	840 ± 0.3	843.4 ± 0.3	846.6 ± 0.4	849.7 ± 0.4	852.8 ± 0.4	855.7 ± 0.4	858.6 ± 0.4
283.15 K, x2 = 0.875	815.4 ± 0.3	819.2 ± 0.4	823 ± 0.4	826.5 ± 0.4	829.9 ± 0.4	833.2 ± 0.4	836.4 ± 0.4	839.5 ± 0.4	842.5 ± 0.4	845.4 ± 0.5
293.15 K, x2 = 0	866.8 ± 0.2	870.5 ± 0.2	874.1 ± 0.3	877.5 ± 0.3	880.8 ± 0.3	884 ± 0.3	887.1 ± 0.3	890.1 ± 0.3	893 ± 0.3	895.9 ± 0.3
293.15 K, x2 = 0.125	861 ± 0.3	864.7 ± 0.3	868.3 ± 0.3	871.8 ± 0.3	875.1 ± 0.3	878.4 ± 0.3	881.5 ± 0.3	884.6 ± 0.3	887.5 ± 0.3	890.4 ± 0.3
293.15 K, x2 = 0.25	854.9 ± 0.3	858.6 ± 0.3	862.3 ± 0.3	865.8 ± 0.3	869.2 ± 0.3	872.5 ± 0.3	875.6 ± 0.3	878.7 ± 0.3	881.7 ± 0.3	884.5 ± 0.4
293.15 K, x2 = 0.375	848.1 ± 0.3	851.8 ± 0.3	855.5 ± 0.3	859.1 ± 0.3	862.5 ± 0.3	865.8 ± 0.3	869 ± 0.3	872.1 ± 0.3	875.1 ± 0.4	878 ± 0.4
293.15 K, x2 = 0.5	840.3 ± 0.3	844 ± 0.3	847.8 ± 0.3	851.4 ± 0.3	854.8 ± 0.3	858.1 ± 0.3	861.4 ± 0.3	864.5 ± 0.4	867.5 ± 0.4	870.4 ± 0.4
293.15 K, x2 = 0.625	831.1 ± 0.3	834.9 ± 0.3	838.7 ± 0.3	842.3 ± 0.3	845.8 ± 0.3	849.2 ± 0.3	852.4 ± 0.4	855.5 ± 0.4	858.6 ± 0.4	861.5 ± 0.4
293.15 K, x2 = 0.75	820.2 ± 0.3	824.1 ± 0.3	827.9 ± 0.3	831.6 ± 0.3	835.1 ± 0.4	838.5 ± 0.4	841.8 ± 0.4	845 ± 0.4	848 ± 0.4	851 ± 0.4
293.15 K, x2 = 0.875	806.6 ± 0.3	810.6 ± 0.3	814.5 ± 0.4	818.3 ± 0.4	821.9 ± 0.4	825.4 ± 0.4	828.7 ± 0.4	831.9 ± 0.4	835 ± 0.5	838 ± 0.5
303.15 K, x2 = 0	857.5 ± 0.2	861.4 ± 0.2	865.2 ± 0.3	868.8 ± 0.3	872.3 ± 0.3	875.7 ± 0.3	879 ± 0.3	882.1 ± 0.3	885.2 ± 0.3	888.1 ± 0.3
303.15 K, x2 = 0.125	851.4 ± 0.3	855.4 ± 0.3	859.2 ± 0.3	862.9 ± 0.3	866.4 ± 0.3	869.9 ± 0.3	873.2 ± 0.3	876.4 ± 0.3	879.4 ± 0.3	882.5 ± 0.4
303.15 K, x2 = 0.25	845.3 ± 0.3	849.3 ± 0.3	853.2 ± 0.3	856.9 ± 0.3	860.5 ± 0.3	863.9 ± 0.3	867.3 ± 0.3	870.4 ± 0.3	873.6 ± 0.4	876.6 ± 0.4
303.15 K, x2 = 0.375	838.5 ± 0.3	842.6 ± 0.3	846.5 ± 0.3	850.3 ± 0.3	853.9 ± 0.3	857.3 ± 0.3	860.7 ± 0.3	863.9 ± 0.3	867.1 ± 0.4	870.1 ± 0.4
303.15 K, x2 = 0.5	830.8 ± 0.3	834.8 ± 0.3	838.8 ± 0.3	842.6 ± 0.3	846.2 ± 0.3	849.7 ± 0.3	853.1 ± 0.3	856.4 ± 0.4	859.5 ± 0.4	862.6 ± 0.4
303.15 K, x2 = 0.625	821.7 ± 0.3	825.8 ± 0.3	829.8 ± 0.3	833.7 ± 0.3	837.3 ± 0.3	840.9 ± 0.3	844.3 ± 0.4	847.6 ± 0.4	850.7 ± 0.4	853.8 ± 0.4
303.15 K, x2 = 0.75	810.9 ± 0.3	815.1 ± 0.3	819.2 ± 0.3	823.1 ± 0.3	826.8 ± 0.4	830.4 ± 0.4	833.8 ± 0.4	837.1 ± 0.4	840.3 ± 0.4	843.4 ± 0.4
303.15 K, x2 = 0.875	797.6 ± 0.3	801.9 ± 0.3	806.1 ± 0.4	810 ± 0.4	813.8 ± 0.4	817.4 ± 0.4	820.9 ± 0.4	824.3 ± 0.4	827.5 ± 0.5	830.6 ± 0.5
313.15 K, x2 = 0	848.1 ± 0.2	852.2 ± 0.3	856.2 ± 0.3	860 ± 0.3	863.7 ± 0.3	867.3 ± 0.3	870.7 ± 0.3	874 ± 0.3	877.2 ± 0.3	880.3 ± 0.3
313.15 K, x2 = 0.125	841.8 ± 0.3	845.9 ± 0.3	850 ± 0.3	853.9 ± 0.3	857.7 ± 0.3	861.3 ± 0.3	864.7 ± 0.3	868.1 ± 0.3	871.3 ± 0.4	874.5 ± 0.4
313.15 K, x2 = 0.25	835.6 ± 0.3	839.8 ± 0.3	844 ± 0.3	847.9 ± 0.3	851.7 ± 0.3	855.3 ± 0.3	858.8 ± 0.3	862.2 ± 0.3	865.4 ± 0.4	868.6 ± 0.4
313.15 K, x2 = 0.375	828.9 ± 0.3	833.2 ± 0.3	837.3 ± 0.3	841.3 ± 0.3	845.1 ± 0.3	848.8 ± 0.3	852.3 ± 0.3	855.7 ± 0.4	859 ± 0.4	862.2 ± 0.4
313.15 K, x2 = 0.5	821.2 ± 0.3	825.5 ± 0.3	829.7 ± 0.3	833.7 ± 0.3	837.5 ± 0.3	841.2 ± 0.3	844.8 ± 0.4	848.2 ± 0.4	851.5 ± 0.4	854.7 ± 0.4
313.15 K, x2 = 0.625	812.2 ± 0.3	816.5 ± 0.3	820.8 ± 0.3	824.8 ± 0.3	828.7 ± 0.3	832.5 ± 0.4	836 ± 0.4	839.4 ± 0.4	842.8 ± 0.4	–
313.15 K, x2 = 0.75	801.6 ± 0.3	806 ± 0.3	810.3 ± 0.3	814.4 ± 0.3	818.3 ± 0.4	822.1 ± 0.4	825.7 ± 0.4	829.2 ± 0.4	832.5 ± 0.4	–
313.15 K, x2 = 0.875	788.6 ± 0.3	793.1 ± 0.3	797.5 ± 0.4	801.6 ± 0.4	805.6 ± 0.4	809.4 ± 0.4	813.1 ± 0.4	816.6 ± 0.4	819.9 ± 0.5	–
